According to ChEMBL document CHEMBL1909294, “Translating clinical findings into knowledge in drug safety evaluation--drug induced liver injury prediction system (DILIps)” (PLoS Comput Biol, 2011):

Key:
Hepatotoxicity [1] = system: Hepatotoxicity;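 for HepSE cirrhosis: cirrhosis hepatic side effect score taken from the DILIps (drug-induced liver injury prediction) training set; call rule not given here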; for HepSE hepatic failure: call rule not given here;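 for HepSE hepatitis: Hepatitis-related hepatic side effect score taken from the training data of DILIps, a prediction system for drug-induced liver injury; call rule not given here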;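 for HepSE hepatomegaly: hepatic side effect score for hepatomegaly, taken from the training set of the DILIps drug-induced liver injury prediction system; call rule not given here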; for HepSE liver disease: call rule not given here;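 for HepSE liver fatty: hepatic side effect score for fatty liver, taken from the DILIps training set for predicting drug-induced liver injury; call rule not given here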;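 for HepSE liver function tests abnormal: hepatic side effect score taken from the DILIps (drug-induced liver injury prediction system) training data, here covering abnormal liver function test findings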
Hepatotoxicity [2] = system: Hepatotoxicity; remark: listed apart in the source;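 for HepSE cirrhosis: cirrhosis hepatic side effect score taken from the DILIps (drug-induced liver injury prediction) training set; call rule not given here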; for HepSE hepatic failure: call rule not given here;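 for HepSE hepatitis: Hepatitis-related hepatic side effect score taken from the training data of DILIps, a prediction system for drug-induced liver injury; call rule not given here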;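 for HepSE hepatomegaly: hepatic side effect score for hepatomegaly, taken from the training set of the DILIps drug-induced liver injury prediction system; call rule not given here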; for HepSE liver disease: call rule not given here;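 for HepSE liver fatty: hepatic side effect score for fatty liver, taken from the DILIps training set for predicting drug-induced liver injury; call rule not given here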;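 for HepSE liver function tests abnormal: hepatic side effect score taken from the DILIps (drug-induced liver injury prediction system) training data, here covering abnormal liver function test findings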
Hepatotoxicity [3] = system: Hepatotoxicity; remark: listed apart in the source;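 for HepSE cirrhosis: cirrhosis hepatic side effect score taken from the DILIps (drug-induced liver injury prediction) training set; call rule not given here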; for HepSE hepatic failure: call rule not given here;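 for HepSE hepatitis: Hepatitis-related hepatic side effect score taken from the training data of DILIps, a prediction system for drug-induced liver injury; call rule not given here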;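 for HepSE hepatomegaly: hepatic side effect score for hepatomegaly, taken from the training set of the DILIps drug-induced liver injury prediction system; call rule not given here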; for HepSE liver disease: call rule not given here;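 for HepSE liver fatty: hepatic side effect score for fatty liver, taken from the DILIps training set for predicting drug-induced liver injury; call rule not given here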;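 for HepSE liver function tests abnormal: hepatic side effect score taken from the DILIps (drug-induced liver injury prediction system) training data, here covering abnormal liver function test findings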
Hepatotoxicity [4] = system: Hepatotoxicity; remark: listed apart in the source;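 for HepSE cirrhosis: cirrhosis hepatic side effect score taken from the DILIps (drug-induced liver injury prediction) training set; call rule not given here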; for HepSE hepatic failure: call rule not given here;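 for HepSE hepatitis: Hepatitis-related hepatic side effect score taken from the training data of DILIps, a prediction system for drug-induced liver injury; call rule not given here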;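 for HepSE hepatomegaly: hepatic side effect score for hepatomegaly, taken from the training set of the DILIps drug-induced liver injury prediction system; call rule not given here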; for HepSE liver disease: call rule not given here;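 for HepSE liver fatty: hepatic side effect score for fatty liver, taken from the DILIps training set for predicting drug-induced liver injury; call rule not given here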;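 for HepSE liver function tests abnormal: hepatic side effect score taken from the DILIps (drug-induced liver injury prediction system) training data, here covering abnormal liver function test findings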
Hepatotoxicity [5] = system: Hepatotoxicity; remark: listed apart in the source; for HepSE hepatic failure: call rule not given here; for HepSE liver disease: call rule not given here
Hepatotoxicity [6] = system: Hepatotoxicity; remark: listed apart in the source; for HepSE hepatic failure: call rule not given here; for HepSE liver disease: call rule not given here
Hepatotoxicity [7] = system: Hepatotoxicity; remark: listed apart in the source
Hepatotoxicity [8] = system: Hepatotoxicity; remark: listed apart in the source
Hepatotoxicity [9] = system: Hepatotoxicity; remark: listed apart in the source
Hepatotoxicity [10] = system: Hepatotoxicity; remark: listed apart in the source
Hepatotoxicity [11] = system: Hepatotoxicity; remark: listed apart in the source
Hepatotoxicity [12] = system: Hepatotoxicity; remark: listed apart in the source
Hepatotoxicity [13] = system: Hepatotoxicity; remark: listed apart in the source
Hepatotoxicity [14] = system: Hepatotoxicity; remark: listed apart in the source

| SMILES | HepSE_hepatomegaly (Hepatotoxicity [1]) | HepSE_hepatitis (Hepatotoxicity [2]) | HepSE_bilirubinemia (Hepatotoxicity [3]) | HepSE_liver fatty (Hepatotoxicity [4]) | HepSE_cirrhosis (Hepatotoxicity [5]) | HepSE_liver disease (Hepatotoxicity [6]) | HepSE_hepatic failure (Hepatotoxicity [7]) | HepSE_cholelithiasis (Hepatotoxicity [8]) | HepSE_liver function tests abnormal (Hepatotoxicity [9]) | HepSE_cholecystitis (Hepatotoxicity [10]) | HepSE_elevated liver function tests (Hepatotoxicity [11]) | HepSE_hepatic necrosis (Hepatotoxicity [12]) | HepSE_jaundice (Hepatotoxicity [13]) | HepSE_Combined Scores (Hepatotoxicity [14]) |
| --- | --- | --- | --- | --- | --- | --- | --- | --- | --- | --- | --- | --- | --- | --- |
| CCN[C@H]1CN(CCCOC)S(=O)(=O)c2sc(S(N)(=O)=O)cc21 [BRINZOLAMIDE] | 0 | 0 | 0 | 0 | 0 | 0 | 0 | 0 | 0 | 0 | 0 | 0 | 0 | 0 |
| O=C1CN=C(c2ccccn2)c2cc(Br)ccc2N1 [BROMAZEPAM] | 0 | 0 | 0 | 0 | 0 | 0 | 0 | 0 | 0 | 0 | 0 | 0 | 0 | 0 |
| CC(C)C[C@H]1C(=O)N2CCC[C@H]2[C@]2(O)O[C@](NC(=O)[C@@H]3C=C4c5cccc6[nH]c(Br)c(c56)C[C@H]4N(C)C3)(C(C)C)C(=O)N12 [BROMOCRIPTINE] | 0 | 0 | 0 | 0 | 0 | 0 | 0 | 0 | 0 | 0 | 0 | 0 | 0 | 0 |
| CCCC1O[C@@H]2C[C@H]3[C@@H]4CCC5=CC(=O)C=C[C@]5(C)[C@H]4[C@@H](O)C[C@]3(C)[C@]2(C(=O)CO)O1 (stereo partly drawn) [BUDESONIDE] | 0 | 0 | 0 | 0 | 0 | 0 | 0 | 0 | 0 | 0 | 0 | 0 | 0 | 0 |
| CCCCNc1cc(C(=O)O)cc(S(N)(=O)=O)c1Oc1ccccc1 [BUMETANIDE] | 0 | 0 | 0 | 0 | 0 | 1 | 0 | 0 | 0 | 0 | 0 | 0 | 0 | 1 |
| CCCCN1CCCCC1C(=O)Nc1c(C)cccc1C (stereo not drawn) [BUPIVACAINE] | 0 | 0 | 0 | 0 | 0 | 1 | 0 | 0 | 0 | 0 | 0 | 0 | 0 | 1 |
| CO[C@]12CC[C@@]3(C[C@@H]1[C@](C)(O)C(C)(C)C)[C@H]1Cc4ccc(O)c5c4[C@@]3(CCN1CC1CC1)[C@H]2O5 [BUPRENORPHINE] | 0 | 0 | 0 | 0 | 0 | 0 | 0 | 0 | 0 | 0 | 0 | 0 | 0 | 0 |
| CC(NC(C)(C)C)C(=O)c1cccc(Cl)c1 (stereo not drawn) [BUPROPION] | 0 | 1 | 0 | 0 | 0 | 0 | 0 | 0 | 0 | 0 | 0 | 0 | 1 | 2 |
| CCNC(=O)[C@@H]1CCCN1C(=O)[C@H](CCCNC(=N)N)NC(=O)[C@H](CC(C)C)NC(=O)[C@@H](COC(C)(C)C)NC(=O)[C@H](Cc1ccc(O)cc1)NC(=O)[C@H](CO)NC(=O)[C@H](Cc1c[nH]c2ccccc12)NC(=O)[C@H](Cc1cnc[nH]1)NC(=O)[C@@H]1CCC(=O)N1 [BUSERELIN] | 0 | 0 | 0 | 0 | 0 | 0 | 0 | 0 | 0 | 0 | 0 | 0 | 0 | 0 |
| O=C1CC2(CCCC2)CC(=O)N1CCCCN1CCN(c2ncccn2)CC1 [BUSPIRONE] | 0 | 0 | 0 | 0 | 0 | 0 | 0 | 0 | 0 | 0 | 0 | 0 | 0 | 0 |
| CS(=O)(=O)OCCCCOS(C)(=O)=O [BUSULFAN] | 1 | 1 | 1 | 0 | 0 | 0 | 0 | 0 | 0 | 0 | 0 | 0 | 1 | 4 |
| CN(Cc1ccc(C(C)(C)C)cc1)Cc1cccc2ccccc12 [BUTENAFINE] | 0 | 0 | 0 | 0 | 0 | 0 | 0 | 0 | 0 | 0 | 0 | 0 | 0 | 0 |
| Clc1ccc(CCC(Cn2ccnc2)Sc2c(Cl)cccc2Cl)cc1 (stereo not drawn) [BUTOCONAZOLE] | 0 | 0 | 0 | 0 | 0 | 0 | 0 | 0 | 0 | 0 | 0 | 0 | 0 | 0 |
| Oc1ccc2c(c1)[C@@]13CCCC[C@@]1(O)[C@@H](C2)N(CC1CCC1)CC3 [BUTORPHANOL] | 0 | 0 | 0 | 0 | 0 | 0 | 0 | 0 | 0 | 0 | 0 | 0 | 0 | 0 |
| C=CCN1C[C@H](C(=O)N(CCCN(C)C)C(=O)NCC)C[C@@H]2c3cccc4[nH]cc(c34)C[C@H]21 [CABERGOLINE] | 0 | 0 | 0 | 0 | 0 | 0 | 0 | 0 | 1 | 0 | 0 | 0 | 0 | 1 |
| Cn1c(=O)c2c(ncn2C)n(C)c1=O [CAFFEINE] | 0 | 0 | 0 | 0 | 0 | 0 | 0 | 0 | 0 | 0 | 0 | 0 | 0 | 0 |
| C=C1/C(=C\C=C2/CCC[C@]3(C)[C@@H]([C@H](C)/C=C/[C@@H](O)C4CC4)CC[C@@H]23)C[C@@H](O)C[C@@H]1O [CALCIPOTRIENE] | 0 | 0 | 0 | 0 | 0 | 0 | 0 | 0 | 0 | 0 | 0 | 0 | 0 | 0 |
